In US20240208992A1, “MACROCYCLES AS CFTR MODULATORS” (Idorsia Pharmaceuticals Ltd, priority 2021, published 2024):

Target: human F508del-CFTR (Homo sapiens, UniProt P13569, DEL508-508)
Experiment: F508del-CFTR cell surface expression (corrector activity), DiscoveRx ß-galactosidase complementation chemiluminescence assay in recombinant U2OS cell line;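 note: U2OS cells co-expressing ProLink-tagged F508del-CFTR and a membrane-anchored enzyme acceptor, where more surface CFTR restores β-galactosidase activity measured by chemiluminescence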
Conditions: for EC50: EC50, F508del-CFTR cell surface expression, U2OS cells, 16h compound incubation, geomean values; for Emax: U2OS, in relation to Emax of corrector lumacaftor (=100%), arithmetic mean values

Sequence of human F508del-CFTR (P13569 with tags, fused parts or gaps DEL508-508): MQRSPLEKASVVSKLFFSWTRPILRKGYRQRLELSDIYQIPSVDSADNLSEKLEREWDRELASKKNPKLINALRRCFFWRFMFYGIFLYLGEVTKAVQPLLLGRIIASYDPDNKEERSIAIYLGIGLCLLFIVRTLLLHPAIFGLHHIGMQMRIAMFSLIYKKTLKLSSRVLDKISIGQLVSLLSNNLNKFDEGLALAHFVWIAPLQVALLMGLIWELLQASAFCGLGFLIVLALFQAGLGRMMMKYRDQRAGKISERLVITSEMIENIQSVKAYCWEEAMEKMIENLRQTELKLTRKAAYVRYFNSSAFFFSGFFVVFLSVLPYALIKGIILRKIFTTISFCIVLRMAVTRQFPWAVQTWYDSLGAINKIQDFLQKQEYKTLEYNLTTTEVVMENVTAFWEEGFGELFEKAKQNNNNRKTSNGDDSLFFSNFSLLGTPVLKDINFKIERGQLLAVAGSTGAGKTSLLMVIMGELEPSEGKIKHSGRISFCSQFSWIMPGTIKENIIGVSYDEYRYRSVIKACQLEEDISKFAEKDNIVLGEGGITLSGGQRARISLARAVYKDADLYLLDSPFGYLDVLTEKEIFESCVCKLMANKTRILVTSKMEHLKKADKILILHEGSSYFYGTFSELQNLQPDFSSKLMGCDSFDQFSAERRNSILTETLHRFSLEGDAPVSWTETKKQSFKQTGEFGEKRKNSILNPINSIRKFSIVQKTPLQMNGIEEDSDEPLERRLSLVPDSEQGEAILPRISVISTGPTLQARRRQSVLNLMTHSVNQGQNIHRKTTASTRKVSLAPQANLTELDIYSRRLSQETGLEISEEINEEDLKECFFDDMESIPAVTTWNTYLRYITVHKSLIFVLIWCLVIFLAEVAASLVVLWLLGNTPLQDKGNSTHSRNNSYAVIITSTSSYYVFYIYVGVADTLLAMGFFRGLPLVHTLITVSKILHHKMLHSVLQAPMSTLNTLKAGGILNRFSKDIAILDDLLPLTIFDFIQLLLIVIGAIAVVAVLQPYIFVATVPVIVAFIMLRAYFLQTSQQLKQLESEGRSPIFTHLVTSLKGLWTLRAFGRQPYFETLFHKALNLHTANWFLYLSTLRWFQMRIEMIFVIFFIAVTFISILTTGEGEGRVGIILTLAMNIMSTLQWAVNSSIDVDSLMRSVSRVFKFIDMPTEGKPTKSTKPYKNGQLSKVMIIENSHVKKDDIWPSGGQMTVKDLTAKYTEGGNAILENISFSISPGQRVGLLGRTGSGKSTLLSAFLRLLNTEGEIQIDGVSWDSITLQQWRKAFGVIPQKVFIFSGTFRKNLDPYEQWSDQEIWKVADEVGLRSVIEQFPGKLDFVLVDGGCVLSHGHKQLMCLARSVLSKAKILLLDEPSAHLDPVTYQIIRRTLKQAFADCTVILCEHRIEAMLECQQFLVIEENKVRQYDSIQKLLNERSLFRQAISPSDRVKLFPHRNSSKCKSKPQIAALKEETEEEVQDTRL

Row | SMILES | EC50 [nM] | Emax [%]
1 | Cc1cc(CCNC(=O)[C@@H]2CC(=O)N(C)[C@@H](CC(C)C)C(=O)N3CCN(CC(C)C)C[C@@H]3C(=O)N[C@H](Cc3ccccc3)COc3cnc4ccccc4c3C(=O)N2)on1 [Example 622, (9S,13S,19aR,22R)-22-benzyl-13,18-diisobutyl-12-methyl-N-(2-(3-methylisoxazol-5-yl)ethyl)-7,11,14,20-tetraoxo-7,8,9,10,11,12,13,14,17,18,19,19a,20,21,22,23-hexadecahydro-16H-pyrazino[2′,1′:6,7][1]oxa[4,7,10,14]tetraazacycloheptadecino[17,16-c]quinoline-9-carboxamide] | 199 | 296
2 | CC(C)C[C@H]1C(=O)N(CCCc2ccccc2)CC(=O)N[C@H](Cc2ccccc2)COc2ccc3ccccc3c2C(=O)N[C@H](C(=O)NCCc2ccc3c(c2)OCO3)CC(=O)N1C [Example 626, (3S,7S,13R)-N-(2-(benzo[d][1,3]dioxol-5-yl)ethyl)-13-benzyl-7-isobutyl-6-methyl-1,5,8,11-tetraoxo-9-(3-phenylpropyl)-1,2,3,4,5,6,7,8,9,10,11,12,13,14-tetradecahydronaphtho[1,2-p][1]oxa[4,7,10,14]tetraazacycloheptadecine-3-carboxamide] | 163 | 253
3 | CC(C)C[C@H]1C(=O)N2CCOC[C@@H]2C(=O)N[C@H](Cc2ccccc2)COc2cnc3c(F)cccc3c2C(=O)N[C@H](C(=O)NCCc2ccc3c(c2)OCCO3)CC(=O)N1C [Example 627, (9S,13S,19aR,22R)-22-benzyl-N-(2-(2,3-dihydrobenzo[b][1,4]dioxin-6-yl)ethyl)-3-fluoro-13-isobutyl-12-methyl-7,11,14,20-tetraoxo-7,8,9,10,11,12,13,14,16,17,19,19a,20,21,22,23-hexadecahydro-[1,4]oxazino[3′,4′:6,7][1]oxa[4,7,10,14]tetraazacycloheptadecino[17,16-c]quinoline-9-carboxamide] | 786 | 395
4 | COc1cccc(CCNC(=O)[C@@H]2CC(=O)N(C)[C@@H](CC(C)C)C(=O)N(C)C3(CC3)C(=O)N[C@H](Cc3ccccc3)COc3ccc4nc(C)oc4c3C(=O)N2)c1 [Example 628, (8′R,14′S,18′S)-8′-benzyl-14′-isobutyl-N-(3-methoxyphenethyl)-2′,12′,15′-trimethyl-10′,13′,16′,20′-tetraoxo-7′,8′,9′,10′,13′,14′,15′,16′,17′,18′,19′,20′-dodecahydro-12′H-spiro[cyclopropane-1,11′-oxazolo[4′,5′:5,6]benzo[1,2-p][1]oxa[4,7,10,14]tetraazacycloheptadecine]-18′-carboxamide] | 363 | 355
5 | Cc1cc(CCNC(=O)[C@@H]2CC(=O)N(C)[C@@H](CC(C)C)C(=O)N3CCCC[C@@H]3C(=O)N[C@H](Cc3ccccc3)COc3ccc4c(C)noc4c3C(=O)N2)on1 [Example 629, (8S,12S,18aR,21R)-21-benzyl-12-isobutyl-3,11-dimethyl-N-(2-(3-methylisoxazol-5-yl)ethyl)-6,10,13,19-tetraoxo-6,7,8,9,10,11,12,13,16,17,18,18a,19,20,21,22-hexadecahydro-15H-isoxazolo[4′,5′:5,6]benzo[1,2-p]pyrido[2,1-f][1]oxa[4,7,10,14]tetraazacycloheptadecine-8-carboxamide] | 521 | 215
6 | CC(C)C[C@H]1C(=O)N2CCCC[C@@H]2C(=O)N[C@H](Cc2ccccc2)COc2cnc3ccc(F)cc3c2C(=O)N[C@H](C(=O)NCCc2c(F)cccc2F)CC(=O)N1C [Example 636, (9S,13S,19aR,22R)-22-benzyl-N-(2,6-difluorophenethyl)-5-fluoro-13-isobutyl-12-methyl-7,11,14,20-tetraoxo-7,8,9,10,11,12,13,14,17,18,19,19a,20,21,22,23-hexadecahydro-16H-pyrido[2′,1′:6,7][1]oxa[4,7,10,14]tetraazacycloheptadecino[17,16-c]quinoline-9-carboxamide] | 91 | 276
7 | CC(C)C[C@H]1C(=O)N2CCCC[C@@H]2C(=O)N[C@H](Cc2ccccc2)COc2cnc3ccc(F)cc3c2C(=O)N[C@H](C(=O)NCCc2noc(C3CC3)n2)CC(=O)N1C [Example 637, (9S,13S,19aR,22R)-22-benzyl-N-(2-(5-cyclopropyl-1,2,4-oxadiazol-3-yl)ethyl)-5-fluoro-13-isobutyl-12-methyl-7,11,14,20-tetraoxo-7,8,9,10,11,12,13,14,17,18,19,19a,20,21,22,23-hexadecahydro-16H-pyrido[2′,11:6,7][1]oxa[4,7,10,14]tetraazacycloheptadecino[17,16-c]quinoline-9-carboxamide] | 106 | 300
8 | CC(C)C[C@H]1C(=O)N2CCCC[C@@H]2C(=O)N[C@H](Cc2ccccc2)COc2cnc3c(F)cccc3c2C(=O)N[C@H](C(=O)NCCc2cc(C3CC3)on2)CC(=O)N1C [Example 638, (9S,13S,19aR,22R)-22-benzyl-N-(2-(5-cyclopropylisoxazol-3-yl)ethyl)-3-fluoro-13-isobutyl-12-methyl-7,11,14,20-tetraoxo-7,8,9,10,11,12,13,14,17,18,19,19a,20,21,22,23-hexadecahydro-16H-pyrido[2′,11:6,7][1]oxa[4,7,10,14]tetraazacycloheptadecino[17,16-c]quinoline-9-carboxamide] | 182 | 297

Next, values leading:

Row | EC50 [nM] | Emax [%] | SMILES
9 | 248 | 349 | Cc1cc(CCNC(=O)[C@@H]2CC(=O)N(C)[C@@H](CC(C)C)C(=O)N3CCN(C(C)C)C[C@@H]3C(=O)N[C@H](Cc3ccccc3)COc3ccc4ccccc4c3C(=O)N2)on1 [Example 623, (4aR,7R,18S,22S)-7-benzyl-22-isobutyl-3-isopropyl-21-methyl-N-(2-(3-methylisoxazol-5-yl)ethyl)-5,16,20,23-tetraoxo-2,3,4,4a,5,6,7,8,16,17,18,19,20,21,22,23-hexadecahydro-1H-naphtho[1,2-p]pyrazino[2,1-f][1]oxa[4,7,10,14]tetraazacycloheptadecine-18-carboxamide]
10 | 781 | 186 | Cc1nc2ccc3c(c2o1)C(=O)N[C@H](C(=O)NCCc1cccc(OC(F)F)c1)CC(=O)N(C)[C@@H](CC(C)C)C(=O)N1CCOC[C@@H]1C(=O)N[C@H](Cc1ccccc1)CO3 [Example 625]
11 | 261 | 175 | Cc1cc(CCNC(=O)[C@@H]2CC(=O)N(C)[C@@H](CC3CCCC3)C(=O)N3CCCC[C@@H]3C(=O)N[C@H](Cc3ccccc3)COc3ccc4c(C)noc4c3C(=O)N2)on1 [Example 630, (8S,12S,18aR,21R)-21-benzyl-12-(cyclopentylmethyl)-3,11-dimethyl-N-(2-(3-methylisoxazol-5-yl)ethyl)-6,10,13,19-tetraoxo-6,7,8,9,10,11,12,13,16,17,18,18a,19,20,21,22-hexadecahydro-15H-isoxazolo[4′,5′:5,6]benzo[1,2-p]pyrido[2,1-f][1]oxa[4,7,10,14]tetraazacycloheptadecine-8-carboxamide]
12 | 898 | 133 | Cc1cc(CCNC(=O)[C@@H]2CC(=O)N(C)[C@@H](CC3CCCC3)C(=O)N3CCCC[C@H]3C(=O)N[C@H](Cc3ccccc3)COc3ccc4c(C)noc4c3C(=O)N2)on1 [Example 631, (8S,12S,18aS,21R)-21-benzyl-12-(cyclopentylmethyl)-3,11-dimethyl-N-(2-(3-methylisoxazol-5-yl)ethyl)-6,10,13,19-tetraoxo-6,7,8,9,10,11,12,13,16,17,18,18a,19,20,21,22-hexadecahydro-15H-isoxazolo[4′,5′:5,6]benzo[1,2-p]pyrido[2,1-f][1]oxa[4,7,10,14]tetraazacycloheptadecine-8-carboxamide]
13 | 927 | 326 | Cc1cc(CCNC(=O)[C@@H]2CC(=O)N(C)[C@@H](CC(C)C)C(=O)N3CCCC[C@@H]3C(=O)N[C@H](Cc3ccccc3)COc3ccc4nc(C)oc4c3C(=O)N2)on1 [Example 632, (8S,12S,18aR,21R)-21-benzyl-12-isobutyl-4,11-dimethyl-N-(2-(3-methylisoxazol-5-yl)ethyl)-6,10,13,19-tetraoxo-6,7,8,9,10,11,12,13,16,17,18,18a,19,20,21,22-hexadecahydro-15H-oxazolo[4′,5′:5,6]benzo[1,2-p]pyrido[2,1-f][1]oxa[4,7,10,14]tetraazacycloheptadecine-8-carboxamide]
14 | 652 | 316 | CO[C@H]1C[C@]2(C1)C(=O)N[C@H](Cc1ccccc1)COc1ccc3ccccc3c1C(=O)N[C@H](C(=O)NCCc1cc(C)no1)CC(=O)N(C)[C@@H](CC(C)C)C(=O)N2C [Example 633, (1r,3S,3′S,7′S,13′R)-13′-benzyl-7′-isobutyl-3-methoxy-6′,9′-dimethyl-N-(2-(3-methylisoxazol-5-yl)ethyl)-1′,5′,8′,11′-tetraoxo-2′,3′,4′,5′,6′,7′,8′,9′,11′,12′,13′,14′-dodecahydro-1′H-spiro[cyclobutane-1,10′-naphtho[1,2-p][1]oxa[4,7,10,14]tetraazacycloheptadecine]-3′-carboxamide]
15 | 173 | 178 | Cc1noc2c3c(ccc12)OC[C@@H](Cc1ccccc1)NC(=O)[C@H]1CCCCN1C(=O)[C@H](CC(C)C)N(C)C(=O)C[C@@H](C(=O)NCCc1c(F)cccc1F)NC3=O [Example 634, (8S,12S,18aR,21R)-21-benzyl-N-(2,6-difluorophenethyl)-12-isobutyl-3,11-dimethyl-6,10,13,19-tetraoxo-6,7,8,9,10,11,12,13,16,17,18,18a,19,20,21,22-hexadecahydro-15H-isoxazolo[4′,5′:5,6]benzo[1,2-p]pyrido[2,1-f][1]oxa[4,7,10,14]tetraazacycloheptadecine-8-carboxamide]
16 | 404 | 112 | Cc1noc2c3c(ccc12)OC[C@@H](Cc1ccccc1)NC(=O)[C@@H]1CCCCN1C(=O)[C@H](CC(C)C)N(C)C(=O)C[C@@H](C(=O)NCCc1c(F)cccc1F)NC3=O [Example 635, (8S,12S,18aS,21R)-21-benzyl-N-(2,6-difluorophenethyl)-12-isobutyl-3,11-dimethyl-6,10,13,19-tetraoxo-6,7,8,9,10,11,12,13,16,17,18,18a,19,20,21,22-hexadecahydro-15H-isoxazolo[4′,5′:5,6]benzo[1,2-p]pyrido[2,1-f][1]oxa[4,7,10,14]tetraazacycloheptadecine-8-carboxamide]
